Patent publication US20090093499A1, “Pharmaceutical composition” (LEK PHARMACEUTICALS D.D., priority 2005, published 2009)

Experiment: Stress stability of the bulk agent and its mixtures with excipients (degradation products by HPLC)
Format: physicochemical
Method: The bulk agent is subjected to stress conditions, such as elevated temperature (40° C. and above), elevated humidity (75% or higher relative humidity, open dish conditions), oxygen atmosphere or solutions with different pH. An HPLC analysis, capable of resolving the agent and its degradation products is then employed, to quantify the amount (given as a mass percentage relative to the agent) of degradation products in the stressed samples. Good chromatographic resolution can be achieved on a C18 reversed phase column with acidic phosphate buffer and an increasing gradient of acetonitrile and tetrahydrofuran. Degradation products are quantified using UV detection at 242 nm. The reporting limit of the degradation products has been set at 0.05%. The % reported for HPLC analysis are in general area %.

[1] = aqueous solution of the agent, buffered to pH = 5 at room temperature (24 hours)
[2] = under oxygen at 60° C. for 14 days

For “(E)-7-[4-(4-fluorophenyl)-6-isopropyl-2-[methyl(methylsulfonyl)amino]pyrimidin-5-yl]-(3R, 5S)-3,5-dihydroxyhept-6-enoic acid hemicalcium salt [the agent]”, the “amount of lactone (%)” value [1] was 2.30%, the “amount of oxidation product (%)” value [1] was <0.05% and the “amount of lactone (%)” value [2] was 0.17%. For the same substance, the “amount of oxidation product (%)” value [2] was 0.71%.
